# Structures can show the parent of a compound that is named as a salt. Where two headings read alike, the source gives them in different places.
# Columns and labels:
# MMP-1 = molecular target: T1, MMP-1 (Homo sapiens, UniProt P03956); experiment: MMP-1 inhibition (thiopeptide or fluorescent peptide substrate); assay type: biochemical; details: read-out: MMP-1 IC50
# T1 sequence (P03956 100-469): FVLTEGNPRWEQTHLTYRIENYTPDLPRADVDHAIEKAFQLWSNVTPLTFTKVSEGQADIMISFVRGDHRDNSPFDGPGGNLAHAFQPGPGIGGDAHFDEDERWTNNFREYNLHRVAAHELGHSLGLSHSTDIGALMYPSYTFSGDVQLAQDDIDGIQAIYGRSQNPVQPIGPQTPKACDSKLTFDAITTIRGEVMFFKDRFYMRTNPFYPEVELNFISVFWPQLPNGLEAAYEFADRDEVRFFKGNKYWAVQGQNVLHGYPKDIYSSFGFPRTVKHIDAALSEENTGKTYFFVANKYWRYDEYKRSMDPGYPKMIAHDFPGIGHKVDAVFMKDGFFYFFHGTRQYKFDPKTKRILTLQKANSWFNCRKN
# MMP-13 = MMP-13 (Homo sapiens, UniProt P45452); experiment: MMP-13 inhibition (thiopeptide or fluorescent peptide substrate); assay type: biochemical; details: read-out: MMP-13 IC50
# [1] = molecular target: TNF-α converting enzyme (TACE) (Homo sapiens, UniProt P78536); experiment: TACE inhibition (fluorescent peptidyl substrate); assay type: biochemical
# MMP-9 = MMP-9 (Homo sapiens, UniProt P14780); experiment: MMP-9 inhibition (thiopeptide or fluorescent peptide substrate); assay type: biochemical; details: read-out: MMP-9 IC50
# MMP-9, sequence (P14780 94-707): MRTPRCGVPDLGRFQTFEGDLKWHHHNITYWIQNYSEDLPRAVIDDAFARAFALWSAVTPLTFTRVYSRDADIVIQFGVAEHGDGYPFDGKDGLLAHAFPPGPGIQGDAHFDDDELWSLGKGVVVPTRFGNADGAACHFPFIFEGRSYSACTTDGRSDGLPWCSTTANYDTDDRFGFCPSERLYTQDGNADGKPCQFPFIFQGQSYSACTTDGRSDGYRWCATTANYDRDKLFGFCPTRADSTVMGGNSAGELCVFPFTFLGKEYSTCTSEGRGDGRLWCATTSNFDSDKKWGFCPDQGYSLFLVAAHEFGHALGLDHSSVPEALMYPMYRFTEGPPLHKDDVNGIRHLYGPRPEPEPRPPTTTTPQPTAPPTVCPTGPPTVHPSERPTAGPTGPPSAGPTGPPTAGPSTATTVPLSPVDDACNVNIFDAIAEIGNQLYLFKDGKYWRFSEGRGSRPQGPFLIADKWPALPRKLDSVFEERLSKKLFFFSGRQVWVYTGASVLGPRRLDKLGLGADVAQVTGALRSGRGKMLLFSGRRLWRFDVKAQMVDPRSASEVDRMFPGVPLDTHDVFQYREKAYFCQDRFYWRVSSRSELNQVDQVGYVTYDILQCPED
# TNF-α converting enzyme (TACE), sequence (P78536 215-824, species assumed): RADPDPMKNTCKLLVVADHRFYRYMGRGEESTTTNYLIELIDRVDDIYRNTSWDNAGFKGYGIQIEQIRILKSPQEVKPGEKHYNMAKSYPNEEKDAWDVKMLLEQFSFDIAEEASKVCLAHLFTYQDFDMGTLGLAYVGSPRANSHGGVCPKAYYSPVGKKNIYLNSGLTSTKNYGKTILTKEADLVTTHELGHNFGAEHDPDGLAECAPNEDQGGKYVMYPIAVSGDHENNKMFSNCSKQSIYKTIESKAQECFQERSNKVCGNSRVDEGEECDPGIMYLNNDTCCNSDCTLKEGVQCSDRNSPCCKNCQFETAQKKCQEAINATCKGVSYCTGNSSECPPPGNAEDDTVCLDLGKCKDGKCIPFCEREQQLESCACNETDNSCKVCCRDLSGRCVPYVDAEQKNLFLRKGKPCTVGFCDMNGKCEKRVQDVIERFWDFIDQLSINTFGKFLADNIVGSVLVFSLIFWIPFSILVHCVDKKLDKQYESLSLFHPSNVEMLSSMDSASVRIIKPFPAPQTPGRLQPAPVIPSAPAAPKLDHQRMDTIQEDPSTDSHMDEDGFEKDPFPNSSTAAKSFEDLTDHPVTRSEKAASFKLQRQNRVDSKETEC
Compound,IC50 (MMP-1) [µM],IC50 (MMP-13) [µM],melting point,IC50 ([1]; read-out: TACE IC50) [µM],also measured
"CC#CCOc1ccc(S(=O)(=O)NC(C(=O)NO)c2ccc(OCCN3CCOCC3)cc2)cc1 (stereo not shown) [Example 206, 2-({[4-(2-Butynyloxy)phenyl]sulfonyl}amino)-N-hydroxy-2-{4-[2-(4-morpholinyl)ethoxy]phenyl}acetamide]",> 10,0.147,80 to 86 °C,0.033,–
"CC#CCOc1ccc(S(=O)(=O)N(C)C(C(=O)NO)C(C)(C)SCCN(CC)CC)cc1 (stereo not shown) [Example 142, 2-({[4-(2-Butynyloxy)phenyl]sulfonyl)(methyl)amino]-N-hydroxy-3-methyl-3-{[2-(diethylamino)ethyl]sulfanyl}butanamide]",0.072,0.014,55 to 57 °C,0.131,IC50 (MMP-9): 0.01 µM
"CC#CCOc1ccc(S(=O)(=O)N(C)C(C(=O)NO)C(C)(C)SCCN2CCOCC2)cc1 (stereo not shown) (as salt: hydrochloride) [Example 140, 2-({[4-(2-Butynyloxy)phenyl]sulfonyl)(methyl)amino]-N-hydroxy-3 Methyl-3-[(2(4-morpholinylethyl)sulfanyl]-butanamide Hydrochloride]",–,–,50 °C (dec.),–,–
"CC#CCOc1ccc(S(=O)(=O)N2CCSCCC2C(=O)NO)cc1 (stereo not shown) [Example 294, 4-{[4-(2-Butynyloxy)phenyl]sulfonyl}-N-hydroxy-1,4-thiazepine-5-carboxamide]",–,–,95 to 98 °C,–,–
"CC#CCOc1ccc(S(=O)(=O)N(C)C(CCCSc2ccc(Cl)cc2)C(=O)NO)cc1 (stereo not shown) [Example 213, 2-[{[4-(2-Butynyloxy)phenyl]sulfonyl}(methyl)amino]-5[(4-chlorophenyl)sulfanyl]-N-hydroxypentanamide]",0.453,0.009,144 to 145.5 °C,0.21,–
"CC#CCOc1ccc(S(=O)(=O)NC(C(=O)NO)C(C)(C)SCC(=O)O)cc1 (stereo not shown) (as salt: sodium) [Example 166, tert-Butyl {[2-({[4-2-Butynyloxy)phenyl]sulfonyl}amino)-3-(hydroxyamino)-1,1-dimethyl-3-oxopropyl]sulfanyl Acetic Acid, Sodium Salt]",–,–,75 °C (dec.),–,–
"CC#CCOc1ccc(S(=O)(=O)NC(C(=O)NO)c2ccc(OCCN3CCN(C(=O)OC(C)(C)C)CC3)cc2)cc1 (stereo not shown) [Example 202, tert-Butyl 4-(2-{4-[1-({[4-(2-Butynyloxy)phenyl]sulfonyl}amino)-2-(hydroxyamino)-2-oxoethyl)phenoxy]ethyl)-1-piperazinecarboxylate]",> 10,0.345,92 to 95 °C,0.113,–
"CC#CCOc1ccc(S(=O)(=O)N2CCOCC2C(=O)NO)cc1 (stereo not shown) [Example 240, 4-([4-(2-Butynyloxy)phenyl]sulfonyl}-N-hydroxy-3-morpholinecarboxamide]",–,–,68 to 72 °C,–,IC50 (MMP-9; Table 9): 0.17 µM; IC50 (MMP-13; Table 9): 0.026 µM; IC50 ([1]; TACE IC50): 0.0045 µM
"CC#CCOc1ccc(S(=O)(=O)N2CCSC3(CCN(Cc4ccccc4)CC3)C2C(=O)NO)cc1 (stereo not shown) (as salt: hydrochloride) [Example 241, 9-Benzyl-4-{[4-(2-butynyloxy)phenyl]sulfonyl}-N-hydroxy-1-thia-4,9-diazaspiro[5.5]undecane-5-carboxamide]",–,–,151 to 153 °C,–,–
CC#CCOc1ccc(S(=O)(=O)N2CCSCC2C(=O)NO)cc1 (stereo not shown) [Example 239],–,–,150 to 154 °C,–,"IC50 (MMP-9; Table 9): 0.021 µM; IC50 (MMP-13; Table 9): 0.012 µM; IC50 ([1]; Table 9, read-out: TACE IC50): 0.0029 µM"
CC#CCOc1ccc(S(=O)(=O)N2CCSC3(CCCC3)C2C(=O)NO)cc1 (stereo not shown) [Example 236],–,–,206 to 208 °C,–,"IC50 (MMP-1; Table 9): 0.024 µM; IC50 (MMP-13; Table 9): 0.011 µM; IC50 ([1]; Table 9, read-out: TACE IC50): 0.043 µM"
"CC#CCOc1ccc(S(=O)(=O)N(C)C(C(=O)NO)C(C)(C)SCC(C)N(CC)CC)cc1 (stereo not shown) [Example 148, 2-({[4-(2-Butynyloxy)phenyl]sulfonyl)(methyl)amino]-N-hydroxy-3 Methyl-3-{[2-(diethylamino)propyl]sulfanyl}butanamide]",–,–,65 to 68 °C,–,–
"CC#CCOc1ccc(S(=O)(=O)N2CCSC3(CCN(C)CC3)C2C(=O)NO)cc1 (stereo not shown) [Example 242, 9-Methyl-4-{[4-(2-butynyloxy)phenyl]sulfonyl}-N-hydroxy-1-thia-4,9-diazaspiro[5.5]undecane-5-carboxamide]",–,–,195 to 198 °C,–,"IC50 ([1]; Table 9, read-out: TACE IC50): 0.869 µM"
"CC#CCOc1ccc(S(=O)(=O)N(C)C(C(=O)NO)C(C)(C)SCCN2CCCC2)cc1 (stereo not shown) [Example 143, 2-({[4-(2-Butynyloxy)phenyl]sulfonyl)(methyl)amino]-N-hydroxy-3 Methyl-3-{[2(1-pyrrolidinyl)ethyl]sulfanyl}butanamide]",–,–,55 to 57 °C,–,–
"CC#CCOc1ccc(S(=O)(=O)N(C)C(C(=O)NO)C(C)(C)SCCn2ccnc2)cc1 (stereo not shown) (as salt: hydrochloride) [Example 144, 2-({[4-(2-Butynyloxy)phenyl]sulfonyl)(methyl)amino]-N-hydroxy-3 Methyl-3-{[2-(1H-imidazol-1-yl)ethyl]sulfanyl}butanamide]",–,–,67 to 70 °C,–,–
"CC#CCOc1ccc(S(=O)(=O)NC(C(=O)NO)c2ccc(OCCN3CCCC3)cc2)cc1 (stereo not shown) (as salt: hydrochloride) [Example 205, 2-({[4-(2-Butynyloxy)phenyl]sulfonyl}amino)-N-hydroxy-2-{4-[2-(1-pyrrolidinyl)ethoxy]phenyl}acetamide]",–,–,70 °C,–,–
"CC#CCOc1ccc(S(=O)(=O)N(C)C(C(=O)NO)c2ccccc2)cc1 (stereo not shown) [Example 211, 2-[{[4-(2-Butynyloxy)phenyl]sulfonyl}(methyl)amino]-N-hydroxy-2-phenylacetamide]",0.496,0.02,–,0.008,IC50 (MMP-9): 0.043 µM
"CC#CCOc1ccc(S(=O)(=O)N2C[C@@H](CN)SC(C)(C)[C@@H]2C(=O)NO)cc1 [Example 275, (3S,6R)-trans-6-(Aminomethyl)-4-{[4-(2-butynyloxy)phenyl]sulfonyl}-N-hydroxy-2,2-dimethyl-3-thiomorpholinecarboxamide Hydrochloride]",–,–,–,–,"IC50 (MMP-1; Table 11): 0.03 µM; IC50 (MMP-9; Table 11): 0.022 µM; IC50 (MMP-13; Table 11): 0.016 µM; IC50 ([1]; Table 11, read-out: TACE IC50): 0.128 µM"

# Continued, in another order:
IC50 (MMP-1) [µM],IC50 (MMP-13) [µM],melting point,IC50 ([1]; read-out: TACE IC50) [µM],Compound,also measured
1.15,0.06,62 °C (dec.),0.064,"CC#CCOc1ccc(S(=O)(=O)N(C)C(C(=O)NO)c2ccc(OCCN(C)C(=O)OC(C)(C)C)cc2)cc1 (stereo not shown) [Example 191, tert-Butyl(2-{4-[1-({[4-(2-Butynyloxy)phenyl]sulfonyl}(methyl)amino)-2-(hydroxyamino)-2-oxoethyl)phenoxy]ethyl)-(methyl)carbamate]",IC50 (MMP-9): 0.037 µM
0.834,0.011,135 °C (dec.),0.062,"CC#CCOc1ccc(S(=O)(=O)N(C)C(C(=O)NO)c2ccc(OCCCNC(=O)Nc3ccccc3)cc2)cc1 (stereo not shown) [Example 198, 2-(4-{3-[(Anilinocarbonyl)amino]propoxy}phenyl)-2-[{[4-(2-butynyloxy)phenyl]sulfonyl}(methyl)amino]-N-hydroxyacetamide]",–
0.592,0.015,88 °C (dec.),0.061,CC#CCOc1ccc(S(=O)(=O)N(C)C(C(=O)NO)c2ccc(OCCCNC(C)=O)cc2)cc1 (stereo not shown) [Example 194],–
–,0.031,48 to 50 °C,0.109,"CC#CCOc1ccc(S(=O)(=O)N(C)C(C(=O)NO)c2ccc(OCCCNC(=O)OCc3ccccc3)cc2)cc1 (stereo not shown) [Example 196, Benzyl 3-{4-[1-[{[4-(2-Butynyloxy)phenyl]sulfonyl}(methyl)amino]-2-(hydroxyamino)-2-oxoethyl]phenoxy}propylcarbamate]",–
0.569,0.024,65 to 70 °C,0.025,"CC#CCOc1ccc(S(=O)(=O)N(C)C(C(=O)NO)c2ccc(OCCCNS(C)(=O)=O)cc2)cc1 (stereo not shown) [Example 197, 2-[{[4-(2-Butynyloxy)phenyl]sulfonyl}(methyl)amino]-N-hydroxy-2-(4-{3-[(methylsulfonyl)amino]propoxy}phenyl)acetamide]",–
~1,0.0293,60 to 62 °C,0.061,"CC#CCOc1ccc(S(=O)(=O)N(C)C(C(=O)NO)c2ccc(OCCCNC(=O)OCC)cc2)cc1 (stereo not shown) [Example 193, Ethyl 3-{4-[1-[{[4-(2-Butynyloxy)phenyl]sulfonyl}(methyl)amino]-2-(hydroxyamino)-2-oxoethyl]phenoxy}propylcarbamate]",–
> 1,0.028,50 to 55 °C,0.122,"CC#CCOc1ccc(S(=O)(=O)N(C)C(C(=O)NO)c2ccc(OCCCNC(=O)OCCCC)cc2)cc1 (stereo not shown) [Example 195, Butyl 3-{4-[1-[{[4-(2-Butynyloxy)phenyl]sulfonyl}(methyl)amino]-2-(hydroxyamino)-2-oxoethyl]phenoxy}propylcarbamate]",–
0.798,0.036,170 to 172 °C,0.062,"CC#CCOc1ccc(S(=O)(=O)N(C)C(C(=O)NO)c2ccc(Cl)cc2)cc1 (stereo not shown) [Example 212, 2-[{[4-(2-Butynyloxy)phenyl]sulfonyl}(methyl)amino]-2-(4-chlorophenyl)-N-hydroxyacetamide]",–

# Reference: patent publication US6716833B2, “Acetylenic α-amino acid-based sulfonamide hydroxamic acid tace inhibitors” (priority 1999, dated 2004)
